Experimental data: PMC10786692 (The Journal of Clinical Investigation, 2024)

How the values were obtained:
[1] = Treatment-related adverse events (CTCAE v4.03), PATRIOT phase I; type: in vivo; conditions: for TRAE Overall events: n: Total
Procedure: For part A (dose escalation; Figure 1, A and B), the starting dose of 20 mg was selected based on animal toxicity studies. Dosing was continuous, and escalation used a modified Fibonacci method. Initial dose escalation was planned in single patient cohorts, changing to 3+3 design after the first grade-2 toxicity was seen. […] DLT definitions are in the Supplemental Methods.
For part B, all patients received the RP2D as defined for part A. Part B allowed for different schedules (continuous/intermittent) to be assessed. Initially, a continuous dosing schedule was used for the first 6 patients. […] Pretreatment biopsy was mandatory in part B. DNA-Seq of archival tumor material or review of external tumor sequencing was used to enrich for patients with putative genomic markers of sensitivity to ATRi, based on preclinical data, including oncogene amplification or driver mutation, ATM/G1 pathway defects (alteration in ATM, CHK2, or other components of the pathway causing G1 cell-cycle arrest after DNA damage), SWI/SNF (switch/sucrose nonfermentable, a chromatin-remodeling complex) pathway defect, genomic instability/homologous recombination deficit (HRD), or defect in a gene synthetically lethal with ATRi in published data ([46], [47]) (Figure 1B and Supplemental Table 3).
Patients were assessed weekly during cycle 1 and twice weekly thereafter, with safety assessments including blood hematology and biochemistry, physical examination, and toxicity scoring.

[2] = preclinical monotherapy; cited from earlier work
[3] = test system: advanced solid tumors; assay: Antitumor response by RECIST 1.1 and duration on study; type: in vivo, human; conditions: for Patients with PR: 40 mg BD or more
[4] = Change in full blood count parameters with time (bone marrow toxicity); type: in vivo, human; design: Lymphocyte change / Monocyte change / Hb change: unit not given here; conditions: for Neutrophil / Platelet: in 10^9/L (unit assumed)
Procedure: Patients were assessed weekly during cycle 1 and twice weekly thereafter, with safety assessments including blood hematology and biochemistry, physical examination, and toxicity scoring. Safety and tolerability were assessed using Common Terminology Criteria for Adverse Events (CTCAE), version 4.03.

[5] = 160 mg BD intermittent schedule
[6] = part B, 160mg (continuous), change from relative day 0, per patient and time point
[7] = part B, 160mg (continuous), per patient and time point
[8] = patient B138, part B, 160mg (intermittent), time point C1D1
[9] = patient B466, part B, 160mg (intermittent), C26D15, relative day 589
[10] = patient B466, part B, 160mg (intermittent), C26D15, relative day 589, change from Day 0
[11] = patient B466, part B, 160mg (intermittent), C27D15, relative day 603
[12] = patient B466, part B, 160mg (intermittent), C27D15, relative day 603, change from Day 0
[13] = patient B466, part B, 160mg (intermittent), C28D15, relative day 617
[14] = patient B466, part B, 160mg (intermittent), C28D15, relative day 617, change from Day 0
[15] = patient B466, part B, 160mg (intermittent), C29D15, relative day 645
[16] = patient B466, part B, 160mg (intermittent), C29D15, relative day 645, change from Day 0
[17] = patient B466, part B, 160mg (intermittent), C30D15, relative day 673
[18] = patient B466, part B, 160mg (intermittent), C30D15, relative day 673, change from Day 0
[19] = patient B466, part B, 160mg (intermittent), C31D15, relative day 701
[20] = patient B466, part B, 160mg (intermittent), C31D15, relative day 701, change from Day 0

What does the source list for `C[C@@H]1COCCN1c1cc(C2([S@](C)(=N)=O)CC2)nc(-c2cc[nH]c3nccc2-3)n1` [ceralasertib]?
TRAE Overall events: n (%) ([1]; 40 mg BD, G1–2): 7 (100); TRAE Overall events: n (%) ([1]; 40 mg BD, G3): 0; TRAE Overall events: n ([1]; 40 mg BD): 7; TRAE Overall events: n (%) ([1]; 80 mg BD, G1–2): 18 (78); TRAE Overall events: n (%) ([1]; 80 mg BD, G3): 5 (22); TRAE Overall events: n ([1]; 80 mg BD): 23; Tolerability of intermittent versus continuous schedule ([1]; 160 mg BD): better tolerated; Incidence of G3 leukopenia ([1]; 160 mg BD continuous schedule): 8%; Incidence of G3 or greater anemia ([1]; 160 mg BD continuous schedule): 33%; TRAE Overall events: n (%) ([1]; 160 mg BD continuous, G1–2): 44 (90); TRAE Overall events: n (%) ([1]; 160 mg BD continuous, G3): 5 (10); TRAE Overall events: n ([1]; 160 mg BD continuous): 49; Incidence of G3 leukopenia [1, 5]: 0%; Incidence of G3 or greater anemia [1, 5]: 9%; TRAE Overall events: n (%) ([1]; 160 mg BD intermittent, G1–2): 100 (89); TRAE Overall events: n (%) ([1]; 160 mg BD intermittent, G3): 11 (10); TRAE Overall events: n (%) ([1]; 160 mg BD intermittent, G4): 1 (1); TRAE Overall events: n ([1]; 160 mg BD intermittent): 112; TRAE Overall events: n (%) ([1]; 240 mg BD, G1–2): 26 (77); TRAE Overall events: n (%) ([1]; 240 mg BD, G3): 8 (24); TRAE Overall events: n (%) ([1]; 240 mg BD, G4): 7 (21); Related SAE ([1]; 20 and 40 mg dose levels): N o related SAE; Treatment-related deaths ([1]; all 67 treated patients): no treatment-related deaths; Patients requiring dose reduction or interruption for toxicity ([1]; continuous schedule (incl. part A), 6 of 12): 50%; Patients withdrawn due to toxicity ([1]; dose-escalation phase): Four; Patients withdrawn due to toxicity ([1]; dose-expansion phase): 1; Patients requiring dose reduction or interruption for toxicity ([1]; intermittent schedule, 10 of 35): 29%; GI50 [2]: ~1000 nM; Patients with PR ([3]; mutation of interest, 4 of 30): 13%; Patients with PR ([3]; no mutation of interest, 1 of 11): 9%; Progressive disease, n (%) ([3]; 160 mg BD or more, n = 49): 15 (30%); Median duration on treatment ([3]; 4 ATM-low patients, range 8–29): 13 weeks; Patients deriving clinical benefit ([3]; 11 patients with oncogene-driven tumors): 3; Best overall response: progressive disease incl. clinical progression, n (%) ([3]; 66 evaluable patients): 27 (41%); Best overall response: stable disease incl. 1 unconfirmed PR, n (%) ([3]; 66 evaluable patients): 34 (52%); Best overall response: confirmed partial responses, n (%) ([3]; 66 evaluable patients, 20–240 mg BD): 5 (8%); Duration ([3]; ARID1A E1387X, lobular breast carcinoma): 42 days; Duration ([3]; ARID1A Q1188X, ovarian clear cell): 275 days; Duration ([3]; ARID1A R693*, eccrine adenocarcinoma): 240 days; Duration ([3]; ARID1A S1623L, cervix adenocarcinoma): 203 days; Duration ([3]; ARID2 Y854fs, SCCHN): 697 days; Tumor shrinkage ([3]; ARID2 frameshift-bearing HNSCC): 29%; Patients experiencing SD ([3]; ATM-low patients): 3 of 4; Best response ([3]; CCNE1 amplification, peritoneal carcinoma, 20 mg BD): progressive disease; Duration on study with SD ([3]; CCNE1 amplification, serous endometrial carcinoma): 12 weeks; Duration of RECIST SD / on study ([3]; HNSCC with ARID2 frameshift): 99 weeks; Duration of RECIST SD ([3]; HNSCC with CCND1 amplification): 49 weeks; Duration on study ([3]; HNSCC, MRE11 and CDKN2A mutation): 1,194 days; Duration on study ([3]; HNSCC, RECIST PR, 40 mg BD): 106 days; Duration of RECIST SD ([3]; HNSCC, no sequencing available): 48 weeks; Duration on study with confirmed PR ([3]; MRE11 stop-gain R633X with CDKN2A stop-gain): more than 32 months; Duration ([3]; PBRM S295*, SCCHN): 112 days; Median duration of response ([3]; PR or SD, with a mutation of interest): 185.5 days; Median duration of response ([3]; PR or SD, without a mutation of interest): 105 days; Duration of response ([3]; PR, HNSCC with APC frameshift and TP53 mutation, 40 mg BD): 15 weeks; Duration of response ([3]; PR, HNSCC with CDKN2A and MRE11A frameshift, 160 mg BD, remains on study): 170 weeks; Duration of response ([3]; PR, esophageal squamous cell carcinoma, HR/Fanconi deficiency, 160 mg BD): 47 weeks; Duration of response ([3]; PR, nasopharyngeal carcinoma, NRAS activating mutation, 240 mg BD): 14 weeks; Duration of response ([3]; PR, ovarian clear cell carcinoma, ARID1A mutation, 160 mg BD, remains on study): 251 weeks; Median duration of response ([3]; RECIST PR patients, IQR 14.9–251.0): 46.7 weeks; Duration of RECIST SD ([3]; digital papillary adenocarcinoma with TP53 mutation): 51 weeks; Duration of SD ([3]; eccrine adenocarcinoma, ARID1A R693X, CDKN2A deletion, 240 mg BD): 34 weeks; Duration on study ([3]; esophageal squamous cell carcinoma, RECIST PR, 160 mg BD intermittent): 575 days; Duration of SD ([3]; increased cyclin E1 by IHC, cervical adenocarcinoma): 29 weeks; Duration of SD ([3]; increased cyclin E1 by IHC, serous endometrial carcinoma, germline BRCA1 mutation): 16 weeks; Duration on study ([3]; nasopharyngeal carcinoma, NRAS activation, RECIST PR, 240 mg BD): 341 days; Duration on study ([3]; pancreatic adenocarcinoma, unconfirmed PR, 160 mg BD intermittent): 480 days; Duration on study with SD ([3]; pathogenic ATM mutation R1898fsX with coexisting ARID1A mutation): 39 weeks; Participants deriving clinical benefit ([3]; seven participants with SWI/SNF pathway aberrations): 6; Duration of response ([3]; unconfirmed PR, TP53 mutant pancreatic adenocarcinoma, 160 mg BD): 15 weeks; Platelets and other hematological parameters, intermittent versus continuous schedule ([4]; 160 mg BD, recovering in the treatment break): more favorable; Hb change [4, 6]: 0; Lymphocyte change [4, 6]: 0; Monocyte change [4, 6]: 0; Platelet change [4, 6]: 0; Neutrophil [4, 7]: 3.29; Platelet [4, 7]: 210; Hb ([4]; part B, dose cohort 160mg (continuous), per patient and time point): 13.7; Hb [4, 8]: 11.5; Neutrophil [4, 8]: 8.54; Platelet [4, 8]: 213; Hb [4, 9]: 101 g/L; Lymphocyte change [4, 10]: 0.4; Monocyte change [4, 10]: 0.2; Platelet change [4, 10]: 125; Neutrophil [4, 9]: 4.5; Platelet [4, 9]: 571; Hb [4, 11]: 96; Lymphocyte change [4, 12]: 0; Monocyte change [4, 12]: -0.8; Platelet change [4, 12]: -198; Neutrophil [4, 11]: 2.7; Platelet [4, 11]: 248; Hb [4, 13]: 99; Lymphocyte change [4, 14]: 0; Monocyte change [4, 14]: 0.2; Platelet change [4, 14]: 142; Neutrophil [4, 13]: 2.7; Platelet [4, 13]: 588; Hb [4, 15]: 100 g/L; Lymphocyte change [4, 16]: 0.5; Monocyte change [4, 16]: -0.6; Platelet change [4, 16]: 143; Neutrophil [4, 15]: 4.6; Platelet [4, 15]: 589; Hb [4, 17]: 103 g/L; Lymphocyte change [4, 18]: 0.5; Monocyte change [4, 18]: 0.1; Platelet change [4, 18]: 118; Neutrophil [4, 17]: 3.9; Platelet [4, 17]: 564; Hb [4, 19]: 101 g/L; Monocyte change [4, 20]: 0.2; Platelet change [4, 20]: 172; Platelet [4, 19]: 618
